Experimental data published in PubChem BioAssay (NCI).
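Tested at 5 concentrations; 48 h exposure; 96-well plates; endpoints linearly interpolated, else capped at highest concentration. GI50 marks 50% less growth. TGI denotes the concentration required for complete inhibition of growth.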

What was measured:
Experiment in all cases: growth of human tumour cells (NCI), 48 h
OVCAR-3 ovarian = tested on: OVCAR-3 ovarian
SW-620 colon = tested on: SW-620 colon
MDA-N = tested on: MDA-N
SK-MEL-2 melanoma = tested on: SK-MEL-2 melanoma
UACC-257 melanoma = tested on: UACC-257 melanoma
SK-MEL-28 melanoma = tested on: SK-MEL-28 melanoma
A549 NSCLC = tested on: A549 NSCLC
PC-3 prostate = tested on: PC-3 prostate
K-562 leukemia = tested on: K-562 leukemia
HL-60(TB) leukemia = tested on: HL-60(TB) leukemia
NCI/ADR-RES ovarian = tested on: NCI/ADR-RES ovarian

| SMILES | TGI (OVCAR-3 ovarian) | TGI (SW-620 colon) | TGI (MDA-N) | TGI (SK-MEL-2 melanoma) | TGI (UACC-257 melanoma) | TGI (SK-MEL-28 melanoma) | TGI (A549 NSCLC) | TGI (PC-3 prostate) | TGI (K-562 leukemia) | TGI (HL-60(TB) leukemia) | TGI (NCI/ADR-RES ovarian) | GI50 (OVCAR-3 ovarian) | GI50 (SW-620 colon) | GI50 (SK-MEL-2 melanoma) | GI50 (UACC-257 melanoma) | GI50 (A549 NSCLC) | GI50 (K-562 leukemia) | GI50 (HL-60(TB) leukemia) | GI50 (NCI/ADR-RES ovarian) |
| --- | --- | --- | --- | --- | --- | --- | --- | --- | --- | --- | --- | --- | --- | --- | --- | --- | --- | --- | --- |
| Cc1nn(-c2ccccc2)c(C)c1/C=N/N=C1\SCC(=O)N1c1ccccc1 | 78.3 µM | > 100 µM | 59.6 µM | 58.4 µM | 88.2 µM | 67.9 µM | 99.6 µM | 51.5 µM | > 100 µM | 82.2 µM | 54.4 µM | – | – | – | – | – | – | – | – |
| Nc1cccc(/C=C/C(=O)N2CCN(CCOC(c3ccccc3)c3ccccc3)CC2)c1 | 32 µM | 35 µM | 35.9 µM | 29.7 µM | 31.5 µM | 28.9 µM | 34.3 µM | 28.9 µM | 26.7 µM | 32 µM | 37.3 µM | – | – | – | – | – | – | – | – |
| C[C@H](CCC(=O)O)[C@H]1CC[C@@]2(C)[C@@H]3C(=O)C[C@H]4C(C)(C)[C@@H](O)CC[C@]4(C)[C@H]3C(=O)C[C@]12C | > 100 µM | > 100 µM | > 100 µM | > 100 µM | > 100 µM | > 100 µM | > 100 µM | > 100 µM | > 100 µM | > 100 µM | > 100 µM | – | – | – | – | – | – | – | – |
| CCC1CN(C(=O)c2ccccc2)C(Cc2c[nH]c3ccccc23)C(=O)C1CC(=O)OC (configuration not stated) | – | > 100 µM | – | > 100 µM | > 100 µM | > 100 µM | – | > 100 µM | > 100 µM | > 100 µM | > 100 µM | – | – | – | – | – | – | – | – |
| CCC(C)C1=C(OC(C)=O)[N+]2([O-])Oc3ccc(-c4c(OC(C)=O)c(OC(C)=O)c(-c5ccc(OC(C)=O)cc5)c(OC(C)=O)c4OC(C)=O)cc3OC2(C(C)CC)C(=O)N1OC(C)=O (configuration not stated) | 29.5 µM | > 50 µM | > 50 µM | 43.2 µM | > 50 µM | 44.7 µM | > 50 µM | > 50 µM | 39.7 µM | 19.7 µM | > 50 µM | – | – | – | – | – | – | – | – |
| CN(C)CC(CC1=C(CC(CN(C)C)N(C)C)CCC1)N(C)C (configuration not stated) | > 100 µM | > 100 µM | – | > 100 µM | > 100 µM | > 100 µM | > 100 µM | – | > 100 µM | > 100 µM | > 100 µM | – | – | – | – | – | – | – | – |
| Fc1ccc(C(OCCN2CCC3CCC(C2)N3C/C=C/c2ccco2)c2ccc(F)cc2)cc1 (configuration not stated) | 27.5 µM | 21.6 µM | 25.9 µM | 26.2 µM | 17.4 µM | 19.5 µM | 29.5 µM | 20.6 µM | 20.7 µM | – | 22.4 µM | – | – | – | – | – | – | – | – |
| O=c1[nH]nc(NNc2ccccc2)c2nnn(C3CCCCC3)c12 | > 100 µM | – | > 100 µM | > 100 µM | > 100 µM | > 100 µM | > 100 µM | > 100 µM | > 100 µM | > 100 µM | > 100 µM | – | – | – | – | – | – | – | – |
| COc1cc2c(cc1O)CC[C@@H]1[C@@H]2CC[C@]2(C)[C@@H](OCCN(C)C)CC[C@@H]12 | 0.966 µM | 0.763 µM | – | 1.04 µM | 0.355 µM | – | 1.19 µM | – | 0.685 µM | 0.232 µM | 0.861 µM | 0.183 µM | 0.163 µM | 0.23 µM | 0.138 µM | 0.247 µM | 0.15 µM | 0.1 µM | 0.163 µM |
| Nc1ccccc1S(=O)(=O)c1ccccc1 | > 100 µM | > 100 µM | – | > 100 µM | > 100 µM | > 100 µM | > 100 µM | – | > 100 µM | > 100 µM | – | – | – | – | – | – | – | – | – |
| CC(=O)C1=C(C)N(c2ccc(C)cc2)C2(O)C=CC(=O)C3C(=O)N(c4ccccc4)C(=O)C132 (configuration not stated) | > 100 µM | 22.7 µM | – | 28.8 µM | 36.5 µM | 43.8 µM | > 100 µM | 62.3 µM | 66.3 µM | 18.4 µM | > 100 µM | – | – | – | – | – | – | – | – |
| O=C(OCN1C(=O)C2C3C=CC(C2C1=O)C1C2C(=O)N(COC(=O)C4CCCN4)C(=O)C2C31)C1CCCN1 (configuration not stated) | > 100 µM | > 72.2 µM | – | > 31.6 µM | > 100 µM | > 100 µM | > 100 µM | – | > 100 µM | 43.6 µM | – | – | – | – | – | – | – | – | – |
| CC1CC[C@@]2(OC1)OC1C[C@H]3[C@@H]4CC=C5CC(OC6OC(CO)C(OC7OC(CO)C(O)C(OC8OCC(O)C(O)C8O)C7OC7OC(CO)C(O)C(O)C7O)C(O)C6O)CCC5(C)[C@H]4CCC3(C)C1[C@@H]2C (some centres not stated) | 9.25 µM | 8.3 µM | – | > 25 µM | 18 µM | > 25 µM | 8.01 µM | 7.45 µM | 17.7 µM | 9.35 µM | 12.9 µM | – | – | – | – | – | – | – | – |
| CNC(=O)OCc1c(CO)nc(SC)n1C | > 100 µM | > 100 µM | – | > 100 µM | > 100 µM | > 100 µM | > 100 µM | – | > 100 µM | > 100 µM | > 100 µM | – | – | – | – | – | – | – | – |
| CNc1ccc2c(c1)[C@@]1(C)c3ccccc3[C@@H](C2)N1C | 50.5 µM | > 100 µM | 74.7 µM | 51.7 µM | 60.6 µM | – | > 100 µM | > 100 µM | 67.5 µM | 38.5 µM | 64.2 µM | – | – | – | – | – | – | – | – |
